Numbers after ± are expanded uncertainties.
Experiments:
[1] = xn = mol fraction of the nth substance listed; conditions: 101.3 kPa, Liquid
[2] = 101.33 kPa, Liquid

SMILES: C1COCCO1 [1,4-dioxane] + CC(C)(C)O
- mass density ([1]; 298.15 K, x1 = 0.0502): 791.11 ± 0.3 kg/m3
- speed of sound ([1]; 298.15 K, x1 = 0.0502): 1133.5 ± 1.3 m/s
- mass density ([1]; 298.15 K, x1 = 0.0802): 797.29 ± 0.29 kg/m3
- speed of sound ([1]; 298.15 K, x1 = 0.0802): 1139.5 ± 1.3 m/s
- mass density ([1]; 298.15 K, x1 = 0.2164): 826.41 ± 0.26 kg/m3
- speed of sound ([1]; 298.15 K, x1 = 0.2164): 1166.2 ± 1.3 m/s
- mass density ([1]; 298.15 K, x1 = 0.2915): 843.19 ± 0.25 kg/m3
- speed of sound ([1]; 298.15 K, x1 = 0.2915): 1180.4 ± 1.3 m/s
- mass density ([1]; 298.15 K, x1 = 0.3944): 867.16 ± 0.22 kg/m3
- speed of sound ([1]; 298.15 K, x1 = 0.3944): 1201.4 ± 1.3 m/s
- mass density ([1]; 298.15 K, x1 = 0.496): 891.65 ± 0.2 kg/m3
- speed of sound ([1]; 298.15 K, x1 = 0.496): 1222.4 ± 1.3 m/s
- mass density ([1]; 298.15 K, x1 = 0.5929): 915.92 ± 0.18 kg/m3
- speed of sound ([1]; 298.15 K, x1 = 0.5929): 1243.8 ± 1.3 m/s
- mass density ([1]; 298.15 K, x1 = 0.6814): 938.8 ± 0.16 kg/m3
- speed of sound ([1]; 298.15 K, x1 = 0.6814): 1264.1 ± 1.3 m/s
- mass density ([1]; 298.15 K, x1 = 0.8029): 971.23 ± 0.12 kg/m3
- speed of sound ([1]; 298.15 K, x1 = 0.8029): 1293.2 ± 1.3 m/s
- mass density ([1]; 298.15 K, x1 = 0.8893): 995.28 ± 0.1 kg/m3
- speed of sound ([1]; 298.15 K, x1 = 0.8893): 1315.3 ± 1.3 m/s
- mass density ([1]; 298.15 K, x1 = 0.9287): 1006.7 ± 0.1 kg/m3
- speed of sound ([1]; 298.15 K, x1 = 0.9287): 1325.5 ± 1.3 m/s
- mass density ([1]; 313.15 K, x1 = 0.0525): 776.05 ± 0.3 kg/m3
- speed of sound ([1]; 313.15 K, x1 = 0.0525): 1069.8 ± 1.2 m/s
- mass density ([1]; 313.15 K, x1 = 0.0886): 783.75 ± 0.3 kg/m3
- speed of sound ([1]; 313.15 K, x1 = 0.0886): 1078.1 ± 1.2 m/s
- mass density ([1]; 313.15 K, x1 = 0.2051): 808.89 ± 0.27 kg/m3
- speed of sound ([1]; 313.15 K, x1 = 0.2051): 1102.3 ± 1.2 m/s
- mass density ([1]; 313.15 K, x1 = 0.287): 827.2 ± 0.26 kg/m3
- speed of sound ([1]; 313.15 K, x1 = 0.287): 1118.9 ± 1.2 m/s
- mass density ([1]; 313.15 K, x1 = 0.3926): 851.46 ± 0.23 kg/m3
- speed of sound ([1]; 313.15 K, x1 = 0.3926): 1139.9 ± 1.2 m/s
- mass density ([1]; 313.15 K, x1 = 0.4938): 875.49 ± 0.21 kg/m3
- speed of sound ([1]; 313.15 K, x1 = 0.4938): 1160.8 ± 1.2 m/s
- mass density ([1]; 313.15 K, x1 = 0.592): 899.61 ± 0.19 kg/m3
- speed of sound ([1]; 313.15 K, x1 = 0.592): 1181.6 ± 1.3 m/s
- mass density ([1]; 313.15 K, x1 = 0.6904): 924.78 ± 0.16 kg/m3
- speed of sound ([1]; 313.15 K, x1 = 0.6904): 1202.7 ± 1.3 m/s
- mass density ([1]; 313.15 K, x1 = 0.7994): 953.91 ± 0.14 kg/m3
- speed of sound ([1]; 313.15 K, x1 = 0.7994): 1227.9 ± 1.3 m/s
- mass density ([1]; 313.15 K, x1 = 0.8871): 978.21 ± 0.11 kg/m3
- speed of sound ([1]; 313.15 K, x1 = 0.8871): 1250.3 ± 1.3 m/s
- mass density ([1]; 313.15 K, x1 = 0.9421): 993.91 ± 0.1 kg/m3
- speed of sound ([1]; 313.15 K, x1 = 0.9421): 1264.2 ± 1.3 m/s

SMILES: CC(C)CO [2-methyl-1-propanol]
- mass density ([2]; 298.15 K): 797.83 ± 0.49 kg/m3
- speed of sound ([2]; 298.15 K): 1188.5 ± 1.3 m/s
- mass density ([2]; 313.15 K): 785.96 ± 0.51 kg/m3
- speed of sound ([2]; 313.15 K): 1138.4 ± 1.3 m/s

SMILES: CC(C)CO [2-methyl-1-propanol] + C1COCCO1
- mass density ([1]; 298.15 K, x2 = 0.0559): 809.27 ± 0.29 kg/m3
- speed of sound ([1]; 298.15 K, x2 = 0.0559): 1196.2 ± 1.3 m/s
- mass density ([1]; 298.15 K, x2 = 0.0943): 817.3 ± 0.28 kg/m3
- speed of sound ([1]; 298.15 K, x2 = 0.0943): 1201.4 ± 1.3 m/s
- mass density ([1]; 298.15 K, x2 = 0.1959): 838.82 ± 0.26 kg/m3
- speed of sound ([1]; 298.15 K, x2 = 0.1959): 1215.5 ± 1.3 m/s
- mass density ([1]; 298.15 K, x2 = 0.2981): 860.89 ± 0.24 kg/m3
- speed of sound ([1]; 298.15 K, x2 = 0.2981): 1229.7 ± 1.3 m/s
- mass density ([1]; 298.15 K, x2 = 0.4039): 884.22 ± 0.22 kg/m3
- speed of sound ([1]; 298.15 K, x2 = 0.4039): 1245.1 ± 1.3 m/s
- mass density ([1]; 298.15 K, x2 = 0.5062): 907.2 ± 0.19 kg/m3
- speed of sound ([1]; 298.15 K, x2 = 0.5062): 1260.6 ± 1.3 m/s
- mass density ([1]; 298.15 K, x2 = 0.603): 929.49 ± 0.17 kg/m3
- speed of sound ([1]; 298.15 K, x2 = 0.603): 1276.1 ± 1.3 m/s
- mass density ([1]; 298.15 K, x2 = 0.7021): 952.9 ± 0.15 kg/m3
- speed of sound ([1]; 298.15 K, x2 = 0.7021): 1292.4 ± 1.3 m/s
- mass density ([1]; 298.15 K, x2 = 0.7966): 976 ± 0.12 kg/m3
- speed of sound ([1]; 298.15 K, x2 = 0.7966): 1308.7 ± 1.3 m/s
- mass density ([1]; 298.15 K, x2 = 0.8943): 1000.57 ± 0.1 kg/m3
- speed of sound ([1]; 298.15 K, x2 = 0.8943): 1326 ± 1.3 m/s
- mass density ([1]; 298.15 K, x2 = 0.9328): 1010.53 ± 0.1 kg/m3
- speed of sound ([1]; 298.15 K, x2 = 0.9328): 1333 ± 1.4 m/s
- mass density ([1]; 313.15 K, x2 = 0.0612): 798.12 ± 0.29 kg/m3
- speed of sound ([1]; 313.15 K, x2 = 0.0612): 1146 ± 1.3 m/s
- mass density ([1]; 313.15 K, x2 = 0.0898): 803.92 ± 0.29 kg/m3
- speed of sound ([1]; 313.15 K, x2 = 0.0898): 1149.5 ± 1.3 m/s
- mass density ([1]; 313.15 K, x2 = 0.1946): 825.35 ± 0.27 kg/m3
- speed of sound ([1]; 313.15 K, x2 = 0.1946): 1162.3 ± 1.3 m/s
- mass density ([1]; 313.15 K, x2 = 0.3039): 848.25 ± 0.24 kg/m3
- speed of sound ([1]; 313.15 K, x2 = 0.3039): 1176.2 ± 1.3 m/s
- mass density ([1]; 313.15 K, x2 = 0.4033): 869.73 ± 0.22 kg/m3
- speed of sound ([1]; 313.15 K, x2 = 0.4033): 1189.2 ± 1.3 m/s
- mass density ([1]; 313.15 K, x2 = 0.5086): 892.99 ± 0.2 kg/m3
- speed of sound ([1]; 313.15 K, x2 = 0.5086): 1203.6 ± 1.3 m/s
- mass density ([1]; 313.15 K, x2 = 0.5674): 906.3 ± 0.19 kg/m3
- speed of sound ([1]; 313.15 K, x2 = 0.5674): 1211.8 ± 1.3 m/s
- mass density ([1]; 313.15 K, x2 = 0.7018): 937.3 ± 0.15 kg/m3
- speed of sound ([1]; 313.15 K, x2 = 0.7018): 1232 ± 1.3 m/s
- mass density ([1]; 313.15 K, x2 = 0.8296): 967.84 ± 0.12 kg/m3
- speed of sound ([1]; 313.15 K, x2 = 0.8296): 1251.9 ± 1.3 m/s
- mass density ([1]; 313.15 K, x2 = 0.8879): 982.25 ± 0.11 kg/m3
- speed of sound ([1]; 313.15 K, x2 = 0.8879): 1261 ± 1.3 m/s
- mass density ([1]; 313.15 K, x2 = 0.9298): 992.74 ± 0.1 kg/m3
- speed of sound ([1]; 313.15 K, x2 = 0.9298): 1267.7 ± 1.3 m/s

SMILES: CC(C)(C)O [2-methylpropan-2-ol]
- mass density ([2]; 298.15 K): 780.86 ± 0.51 kg/m3
- speed of sound ([2]; 298.15 K): 1122.8 ± 1.3 m/s
- mass density ([2]; 313.15 K): 765.16 ± 0.54 kg/m3
- speed of sound ([2]; 313.15 K): 1057.4 ± 1.2 m/s

— the NIST ThermoML archive (doi:10.1016/j.jct.2004.07.015)
